# Experimental data taken from ChEMBL document CHEMBL1201862, “PubChem BioAssay data set” (2004).
#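 These data come from cells grown in 96-well plates and exposed to compound for 48 hours at five concentrations. Here, GI50 denotes the concentration required for 50% inhibition of growth.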 Activity calls are given as the source filed them. Cut-off read from the data, not from the text of the source: active = GI50 up to about 1.1 µM and inactive = higher.
# Tests used:
# Experiment in all cases: DTP human tumour cell line panel, 48 h
# [1] = system: COLO 205
# [2] = system: Hs-578T
# [3] = system: U-251
# [4] = system: NCI-H460
# [5] = system: DU-145
# [6] = system: IGROV-1
# [7] = system: A549
# [8] = system: HOP-92
# [9] = system: MDA-MB-435
# [10] = system: BT-549
# [11] = system: NCI-H23
# [12] = system: HCC 2998
# [13] = system: NCI-H522
# [14] = system: RPMI-8226
# [15] = system: CAKI-1
# [16] = system: UACC-62
# [17] = system: LOX IMVI
# [18] = system: SF-268
# [19] = system: OVCAR-8
# [20] = system: MOLT-4
SMILES,GI50 [1],GI50 [2],GI50 [3],GI50 [4],GI50 [5],GI50 [6],GI50 [7],GI50 [8],GI50 [9],GI50 [10],GI50 [11],GI50 [12],GI50 [13],GI50 [14],GI50 [15],GI50 [16],GI50 [17],GI50 [18],GI50 [19],GI50 [20]
COc1cc(C2c3cc4c(cc3OC(NCCO)C2C)OCO4)cc(OC)c1OC (stereo not given),0.526 µM (active),0.325 µM (active),0.406 µM (active),0.409 µM (active),0.678 µM (active),0.687 µM (active),0.762 µM (active),0.188 µM (active),0.0927 µM (active),3.66 µM (inactive),1.19 µM (inactive),0.824 µM (active),0.241 µM (active),0.389 µM (active),0.485 µM (active),0.378 µM (active),0.42 µM (active),2.05 µM (inactive),2.2 µM (inactive),0.489 µM (active)
CC(NP(=O)(c1ccccc1)c1ccccc1)c1ccccc1 (stereo not given),> 100 µM (inactive),> 100 µM (inactive),> 100 µM (inactive),> 100 µM (inactive),> 100 µM (inactive),> 100 µM (inactive),> 100 µM (inactive),> 100 µM (inactive),> 100 µM (inactive),> 100 µM (inactive),> 100 µM (inactive),> 100 µM (inactive),> 100 µM (inactive),> 100 µM (inactive),> 100 µM (inactive),> 100 µM (inactive),> 100 µM (inactive),> 100 µM (inactive),> 100 µM (inactive),> 100 µM (inactive)
O=C(O)C1[C@@H](C(=O)O)C1(Br)CBr (stereo not given in full),> 100 µM (inactive),> 100 µM (inactive),> 100 µM (inactive),> 100 µM (inactive),> 100 µM (inactive),> 100 µM (inactive),> 100 µM (inactive),> 100 µM (inactive),> 100 µM (inactive),> 100 µM (inactive),> 100 µM (inactive),> 100 µM (inactive),> 100 µM (inactive),> 100 µM (inactive),> 100 µM (inactive),> 100 µM (inactive),> 100 µM (inactive),> 100 µM (inactive),> 100 µM (inactive),> 100 µM (inactive)
COc1c(CC=C(C)C)c(O)c(C(CC(C)C)c2c(O)c(CC=C(C)C)c(O)c(C(C)=O)c2O)c(O)c1C(C)=O (stereo not given),0.564 µM (active),1.07 µM (active),0.703 µM (active),0.589 µM (active),2.32 µM (inactive),1.7 µM (inactive),1.8 µM (inactive),0.191 µM (active),1.94 µM (inactive),1.62 µM (inactive),0.275 µM (active),0.537 µM (active),0.2 µM (active),0.419 µM (active),1.21 µM (inactive),0.527 µM (active),1.57 µM (inactive),0.323 µM (active),0.385 µM (active),0.644 µM (active)
